Test: mn = molality of the nth substance listed, in mol/kg
Conditions: 350 kPa, Liquid, Extra sensitive DSC

N[C@@H](CO)C(=O)O [L-serine] + O
apparent molar heat capacity [J/K/mol]
Conditions | m1 = 0.015 | m1 = 0.0302 | m1 = 0.05 | m1 = 0.08 | m1 = 0.1249 | m1 = 0.2501 | m1 = 0.3717 | m1 = 0.7002 | m1 = 1.001
278.15 K | 58.9 | 59.2 | 58.9 | 60.7 | 62.4 | 67.93 | 72.64 | 84.65 | 94.04
283.15 K | 78.9 | 79.3 | 79.2 | 80.6 | 82.1 | 86.36 | 90.3 | 99.99 | 108.37
288.15 K | 94.8 | 95.4 | 95.2 | 96.5 | 97.7 | 101.28 | 104.58 | 112.69 | 120.13
293.15 K | 108 | 108.7 | 108.4 | 109.5 | 110.5 | 113.56 | 116.4 | 123.33 | 129.97
298.15 K | 118.7 | 119.4 | 119.2 | 120.1 | 120.9 | 123.63 | 126.11 | 132.2 | 138.25
303.15 K | 127.9 | 128.6 | 128.4 | 129.2 | 129.9 | 132.24 | 134.43 | 139.82 | 145.45
308.15 K | 135.6 | 136.4 | 136.2 | 136.9 | 137.5 | 139.63 | 141.58 | 146.36 | 151.62
313.15 K | 142.6 | 143.1 | 142.9 | 143.5 | 144.1 | 145.98 | 147.77 | 152.15 | 157.1
318.15 K | 148.7 | 148.9 | 148.6 | 149.2 | 149.7 | 151.4 | 153.04 | 157.06 | 161.73
323.15 K | 153.9 | 154.1 | 153.8 | 154.2 | 154.6 | 156.2 | 157.74 | 161.47 | 165.95
328.15 K | 158.6 | 158.6 | 158.3 | 158.7 | 159 | 160.4 | 161.86 | 165.32 | 169.63
333.15 K | 163.4 | 163.1 | 162.2 | 162.6 | 162.9 | 164.2 | 165.59 | 168.83 | 173.01
338.15 K | 167.3 | 166.8 | 165.8 | 166.2 | 166.4 | 167.6 | 168.91 | 172 | 176.07
343.15 K | 170.4 | 169.9 | 168.8 | 169 | 169.3 | 170.5 | 171.75 | 174.71 | 178.65
348.15 K | 173.7 | 172.4 | 171.4 | 171.6 | 171.9 | 173.1 | 174.28 | 177.14 | 181.02
353.15 K | 176 | 174.9 | 173.8 | 174 | 174.3 | 175.4 | 176.6 | 179.33 | 183.15
358.15 K | 178 | 176.9 | 176 | 176 | 176.4 | 177.4 | 178.6 | 181.28 | 185.03
363.15 K | 179 | 178.4 | 177.6 | 177.7 | 178.1 | 179.1 | 180.3 | 182.94 | 186.63
368.15 K | 181 | 179.7 | 178.9 | 179 | 179.6 | 180.6 | 181.8 | 184.38 | 188
373.15 K | 181 | 180.9 | 180.2 | 180.1 | 180.7 | 181.8 | 183 | 185.63 | 189.22
378.15 K | 181 | 181.7 | 181 | 180.7 | 181.7 | 182.9 | 183.9 | 186.55 | 190.12
383.15 K | 182 | 182.2 | 181.8 | 181.3 | 182.4 | 183.8 | 184.8 | 187.46 | 190.98
388.15 K | 183 | 182.6 | 182.7 | 181.4 | 183 | 184.4 | 185.4 | 188.07 | 191.6
393.15 K | 183 | 182.6 | 183.3 | 181.2 | 183.4 | 184.8 | 185.7 | 188.6 | 192.04

Reference: the NIST ThermoML archive (doi:10.1016/j.jct.2005.07.019)
